Laboratory results from ChEMBL document CHEMBL1127984, “Beneficial replacement of the P1 phenylalanine side chain in HIV-1 protease inhibitors of the difluorostatone type” (Bioorg Med Chem Lett, 1994).
One block for each molecule: values may come before it.

Columns and labels:
[1] = target: Human immunodeficiency virus type 1 protease (Human immunodeficiency virus 1, UniProt Q72874); assay: Compound was tested for inactivation of purified HIV-1 protease in vitro
[2] = tested on: MT4; assay: Effective dose that inhibits cellular growth of MT-4 cells infected with HIV-1 RF strain; assay type: functional, cell-based; conditions: Homo sapiens
[3] = tested on: MT4; assay: […]; assay type: functional; conditions: Homo sapiens
[4] = Ratio between Cytotoxic dose and effective dose was determined; assay type: functional
[5] = tested on: MT2; assay: Effective dose that inhibits cellular growth of MT2 cells infected with HIV-1 105/F strain; assay type: functional, cell-based; conditions: Homo sapiens
[6] = tested on: MT2; assay: Effective dose that inhibits cellular growth of MT2 cells infected with HIV-1 105/A strain; assay type: functional, cell-based; conditions: Homo sapiens
[7] = tested on: C8166; assay: Effective dose that inhibits cellular growth of C8166 cells infected with HIV-1 RF strain; assay type: functional, cell-based; conditions: Homo sapiens
[8] = tested on: H9; assay: Effective dose that inhibits cellular growth of H9 cells infected with HIV-1 IIIB strain; assay type: functional, cell-based; conditions: Homo sapiens
[9] = tested on: C8166; assay: Effective dose that inhibits cellular growth of C8166 cells infected with SIV mac251 strain; conditions: Homo sapiens
[10] = tested on: H9; assay: Effective dose that inhibits cellular growth of H9 cells infected with HIV-1 U455 strain; assay type: functional, cell-based; conditions: Homo sapiens
[11] = species: Homo sapiens; assay: Effective dose that inhibits cellular growth of PBMCs cells infected with HIV-1 CCI strain; assay type: functional, cell-based; conditions: PBMC
[12] = tested on: JM1; assay: Effective dose that inhibits cellular growth of JM cells infected with HIV-1 GB8 strain; assay type: functional, cell-based; conditions: Homo sapiens
[13] = tested on: C8166; assay: Cytotoxic dose against HIV-1 was determined in C8166 cells; assay type: functional; conditions: Homo sapiens
[14] = tested on: JM1; assay: Cytotoxic dose against HIV-1 GB8 strain was determined in JM cells; assay type: functional; conditions: Homo sapiens
[15] = tested on: C8166; assay: Effective dose that inhibits cellular growth of C8166 cells infected with HIV-2 rod strain; assay type: functional, cell-based; conditions: Homo sapiens
[16] = tested on: CCRF-CEM; assay: Effective dose that inhibits cellular growth of CEM cells infected with HIV-1 IIIB strain; assay type: functional, cell-based; conditions: Homo sapiens
[17] = tested on: H9; assay: Effective dose that inhibits cellular growth of H9 cells infected with HIV-1 RF strain; assay type: functional, cell-based; conditions: Homo sapiens

SMILES: CC(C)[C@H](NC(=O)OCc1ccccc1)C(=O)NC(Cc1ccc(OCc2ccccc2)cc1)C(=O)C(F)(F)C(=O)N1CCc2ccccc2C1 (some centres undefined)
IC50 [1]: 2 nM
EC50 [2]: 360 nM
CC50 [3]: > 100000 nM
Ratio [4]: >280

SMILES: CC(C)[C@H](NC(=O)OCc1ccccc1)C(=O)NC(Cc1ccccc1)C(=O)C(F)(F)C(=O)NCc1ccccc1 (some centres undefined)
Ki [1]: 1 nM
EC50 [2]: 5000 nM
CC50 [3]: 23000 nM
Ratio [4]: ~5

Ki [1]: 5 nM
SMILES: CC(C)[C@H](NC(=O)OCc1ccccc1)C(=O)NC(Cc1ccc(OCc2ccccc2)cc1)C(=O)C(F)(F)C(=O)N1CCOCC1 (some centres undefined)
EC50 [2]: 3200 nM
CC50 [3]: 64000 nM
Ratio [4]: 20

SMILES: CC(C)[C@H](NS(=O)(=O)Cc1ccccc1)C(=O)NC(Cc1ccc(OCc2ccccc2)cc1)C(=O)C(F)(F)C(=O)NCc1ccccc1 (some centres undefined)
IC50 [1]: 48000 nM

SMILES: CC(C)[C@H](NC(=O)OCc1ccccc1)C(=O)NC(Cc1ccc(OCc2ccccc2)cc1)C(=O)C(F)(F)C(=O)NCc1ccccc1 (some centres undefined)
EC50 [5]: 380 nM
EC50 [6]: 230 nM
EC50 [7]: 100 nM
EC50 [8]: 290 nM
Ki [1]: 5 nM
EC50 [9]: 630 nM
EC50 [10]: 420 nM
EC50 [11]: 560 nM
EC50 [12]: 140 nM
CC50 [13]: > 100000 nM
CC50 [14]: > 100000 nM
EC50 [2]: 300 nM
CC50 [3]: > 100000 nM
EC50 [15]: 350 nM
Ratio [4]: >300
EC50 [16]: 720 nM
EC50 [17]: 56 nM

Ki [1]: 0.4 nM
SMILES: CC(C)[C@H](NC(=O)OCc1ccccc1)C(=O)NC(Cc1ccc(OCc2ccccc2)cc1)C(=O)C(F)(F)C(=O)N(C)Cc1ccccc1 (some centres undefined)
EC50 [2]: 280 nM
CC50 [3]: > 100000 nM
Ratio [4]: >300

SMILES: CCN(Cc1ccccc1)C(=O)C(F)(F)C(=O)C(Cc1ccc(OCc2ccccc2)cc1)NC(=O)[C@@H](NC(=O)OCc1ccccc1)C(C)C (some centres undefined)
IC50 [1]: 15 nM
EC50 [2]: 8000 nM
CC50 [3]: 10000 nM
Ratio [4]: ~1

SMILES: O=C(NC(C(=O)NC(Cc1ccc(OCc2ccccc2)cc1)C(=O)C(F)(F)C(=O)NCc1ccccc1)C1CCCC1)OCc1ccccc1 (centres undefined)
IC50 [1]: 6 nM
CC50 [3]: > 100000 nM
Ratio [4]: >33

SMILES: CC(C)C[C@H](NC(=O)OCc1ccccc1)C(=O)NC(Cc1ccc(OCc2ccccc2)cc1)C(=O)C(F)(F)C(=O)NCc1ccccc1 (some centres undefined)
IC50 [1]: 15 nM
EC50 [2]: 190 nM
CC50 [3]: 3200 nM
Ratio [4]: 17

SMILES: CC(C)[C@H](NC(=O)OCc1ccccc1)C(=O)NC(Cc1ccccc1)C(=O)C(F)(F)C(=O)N1CCc2ccccc2C1 (some centres undefined)
IC50 [1]: 50 nM

SMILES: O=C(NC(C(=O)NC(Cc1ccc(OCc2ccccc2)cc1)C(=O)C(F)(F)C(=O)NCc1ccccc1)C1CCCCC1)OCc1ccccc1 (centres undefined)
IC50 [1]: 70 nM
EC50 [2]: > 100000 nM
CC50 [3]: > 100000 nM

SMILES: CC(C)[C@H](NC(=O)OC(C)(C)C)C(=O)NC(Cc1ccc(OCc2ccccc2)cc1)C(=O)C(F)(F)C(=O)NCc1ccccc1 (some centres undefined)
EC50 [2]: > 10000 nM
CC50 [3]: 10000 nM

SMILES: CC(C)[C@H](NC(=O)CCc1cccnc1)C(=O)NC(Cc1ccc(OCc2ccccc2)cc1)C(=O)C(F)(F)C(=O)NCc1ccccc1 (some centres undefined)
IC50 [1]: 8 nM
EC50 [2]: 320 nM
CC50 [3]: > 100000 nM
Ratio [4]: >100

Ki [1]: 70 nM
SMILES: CC(C)[C@H](NC(=O)OCc1ccccc1)C(=O)NC(Cc1ccccc1)C(=O)C(F)(F)C(=O)N1CCOCC1 (some centres undefined)
EC50 [2]: 50000 nM
CC50 [3]: > 100000 nM
Ratio [4]: >2
